Counter-ions that a name gives are not always drawn.
What was measured:
HO-1 (rat spleen) = target: T1, HO-1 (rat spleen) (Rattus norvegicus, UniProt P06762); experiment: HO enzymatic activity in rat spleen microsomal fraction (CO formed from methemalbumin, gas chromatography); format: biochemical; settings: rat spleen microsomes, average ± standard deviation of replicate experiments; for IC50: read-out: IC50 HO-1 (rat spleen)/μM
T1 construct: Spleen microsomes were used as a source of HO-1; from tissue; host or cells: spleen microsomal fraction of adult male Sprague-Dawley rats
T1 sequence (P06762 1-289): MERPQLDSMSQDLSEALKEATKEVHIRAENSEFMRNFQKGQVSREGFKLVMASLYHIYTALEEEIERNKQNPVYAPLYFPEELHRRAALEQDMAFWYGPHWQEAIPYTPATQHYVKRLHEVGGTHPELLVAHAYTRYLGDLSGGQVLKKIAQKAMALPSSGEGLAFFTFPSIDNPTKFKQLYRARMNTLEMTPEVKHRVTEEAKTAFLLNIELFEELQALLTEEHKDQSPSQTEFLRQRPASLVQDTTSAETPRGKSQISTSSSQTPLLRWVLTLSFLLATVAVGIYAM
Experimental: (§1) Incubations for HO activity analysis were done under conditions for which the rate of CO formation (pmol CO×min^−1×mg protein^−1) was linear with respect to time and microsomal protein concentration. Briefly, reaction mixtures (150 μL) consisting of 100 mM phosphate buffer (pH 7.4), 50 μM methemalbumin, and 1 mg/mL protein were pre-incubated with the inhibitors at final concentrations ranging from 0.1-100 μM for 10 minutes at 37° C. Reactions were initiated by adding NADPH at a final concentration of 1 mM and incubations were performed for an additional 15 minutes at 37° C.
(§2) Incubations for HO activity analysis were done under conditions for which the rate of CO formation (pmol CO/mg protein/minute) was linear with respect to time and microsomal protein concentration. Briefly, reaction mixtures (150 μL) consisting of 100 mM phosphate buffer (pH 7.4), 50 μM methemalbumin and 1 mg/mL protein were pre-incubated with the vehicle (ethanol or water in which the inhibitors were dissolved), or inhibitors at final concentrations ranging from 0.1-1000 μM for 10 minutes at 37° C. Reactions were initiated by adding β-NADPH at a final concentration of 1 mM and incubations were carried out for an additional 15 minutes at 37° C. Reactions were stopped by instantly freezing the reaction mixture on pulverized dry ice and CO formation was measured by gas chromatography using a TA 3000R Process Gas Analyzer (Trace Analytical/Ametek, Newark, Del., USA).
(§3) The values on the abscissa represent the decimal logarithm of the inhibitor's concentration (in μM), whereas the values of the activity on the ordinate are expressed as a percentage of the control experiments without inhibitor.
(§4) The IC50 values for the replicate experiments were employed to generate the reported standard deviation value.

HO-2 (rat brain) = target: T2, HO-2 (rat brain) (Rattus norvegicus, UniProt P23711); experiment: HO enzymatic activity in rat brain microsomal fraction (CO formed from methemalbumin, gas chromatography); format: biochemical; settings: rat brain microsomes, average ± standard deviation of replicate experiments; for IC50: read-out: IC50 HO-2 (rat brain)/μM
T2 construct: brain microsomes were used as a source of HO-2; from tissue; host or cells: brain microsomal fraction of adult male Sprague-Dawley rats
T2 sequence (P23711 1-315): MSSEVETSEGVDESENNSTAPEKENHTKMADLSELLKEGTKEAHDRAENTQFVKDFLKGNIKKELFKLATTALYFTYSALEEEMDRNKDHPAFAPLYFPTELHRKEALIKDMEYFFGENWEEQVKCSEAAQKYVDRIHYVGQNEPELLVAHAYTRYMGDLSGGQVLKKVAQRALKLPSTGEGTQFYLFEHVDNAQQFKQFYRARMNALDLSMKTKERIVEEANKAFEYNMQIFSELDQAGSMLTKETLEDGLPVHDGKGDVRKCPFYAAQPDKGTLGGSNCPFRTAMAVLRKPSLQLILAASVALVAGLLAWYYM
Experimental: as §1, §2, §3, §4

Row | Structure (SMILES) | IC50 (HO-1 (rat spleen)) [µM] | IC50 (HO-2 (rat brain)) [µM] | IC50 HO-1 (rat spleen)/μM (HO-1 (rat spleen)) | IC50 HO-2 (rat brain)/μM (HO-2 (rat brain))
1 | c1cn(CCCCCCCCCCn2ccnc2)cn1 [1,10-bis-(1H-imidazol-1-yl)decane dihydrochloride] | ~10 | ~14 |  | 
2 | c1cn(CCCCCCCCCCCCn2ccnc2)cn1 [1,12-bis-(1H-imidazol-1-yl)dodecane dihydrochloride] | ~4 | ~9 |  | 
3 | CCC(=O)Cn1ccnc1 [1-(1H-Imidazol-1-yl)-butan-2-one hydrochloride] | > 100 | > 100 |  | 
4 | CC(=O)Cn1ccnc1 [1-(1H-Imidazol-1-yl)-propan-2-one] |  |  | Not Active | Not Active
5 | O=C(Cn1cncn1)c1ccc(Cl)cc1Cl [1-(2,4-dichloro-phenyl)-2-[1,2,4]triazol-1-yl-ethanone] | 4.1 ± 0.9 | > 100 |  | 
6 | O=C(Cn1cncn1)c1cc(Cl)ccc1Cl [1-(2,5-Dichloro-phenyl)-2-[1,2,4]triazol-1-yl-ethanone] | 18.4 ± 0.5 | > 100 |  | 
7 | c1ccc(CCC2(Cn3cnnn3)OCCO2)cc1 [1-(2-Phenethyl-[1,3]dioxolan-2-ylmethyl)-1H-tetrazole hydrochloride] | 39 ± 5 | > 100 |  | 
8 | c1ccc(CCC2(Cn3cnc(-c4ccccc4)c3)OCCO2)cc1 [1-(2-Phenethyl-[1,3]dioxolan-2-ylmethyl)-4-phenyl-1H-imidazole hydrochloride] | > 100 | > 100 |  | 
9 | c1cn(CCC23CC4CC(CC(C4)C2)C3)cn1 [1-(2-adamantan-1-yl-ethyl)-1H-imidazole hydrochloride] | 3 ± 1 | > 100 |  | 
10 | Cc1nccn1CC(=O)CCc1ccccc1 [1-(2-methyl-imidazol-1-yl)-4-phenyl-butan-2-one hydrochloride] | > 100 | > 100 |  | 
11 | c1ccc2cc(C3(Cn4cncn4)OCCO3)ccc2c1 [1-(2-naphthalen-2-yl-[1,3]dioxolan-2-ylmethyl)-1H-[1,2,4]triazole] | 3.58 ± 0.08 | > 100 |  | 
12 | O=C(Cn1cncn1)c1ccc(Cl)c(Cl)c1 [1-(3,4-Dichloro-phenyl)-2-[1,2,4]triazol-1-yl-ethanone hydrochloride] | 1.3 ± 0.5 | > 100 |  | 
13 | O=C(CCc1ccccc1)Cn1nc(Br)nc1Br [1-(3,5-Dibromo-[1,2,4]triazol-1-yl)-4-phenyl-butan-2-one] | > 100 | > 100 |  | 
14 | CSc1ncn(CC(=O)CCc2ccccc2)n1 [1-(3-Methylsulfanyl-[1,2,4]triazol-1-yl)-4-phenyl-butan-2-one] | > 100 | > 100 |  | 
15 | O=C(CCc1ccccc1)Cn1cnc(Cl)c1Cl [1-(4,5-Dichloro-imidazol-1-yl)-4-phenyl-butan-2-one hydrochloride] | > 100 | > 100 |  | 
16 | O=C(CCc1ccccc1)Cn1cnc(-c2ccccc2)c1-c1ccccc1 [1-(4,5-Diphenyl-imidazol-1-yl)-4-phenyl-butan-2-one hydrochloride] | 40 ± 2 | > 100 |  | 
17 | O=C(Cn1cncn1)c1ccc([N+](=O)[O-])cc1 [1-(4-Nitro-phenyl)-2-[1,2,4]triazol-1-yl-ethanone hydrochloride] | 19.2 ± 0.5 | > 100 |  | 

Continued, values first:

Row | IC50 (HO-1 (rat spleen)) [µM] | IC50 (HO-2 (rat brain)) [µM] | IC50 HO-1 (rat spleen)/μM (HO-1 (rat spleen)) | IC50 HO-2 (rat brain)/μM (HO-2 (rat brain)) | Structure (SMILES)
18 | 1.8 ± 0.4 | 6.2 ± 0.1 |  |  | O=C(CCc1ccc([N+](=O)[O-])cc1)Cn1ccnc1 [1-(1H-Imidazol-1-yl)-4-(4-nitro-phenyl)-butan-2-one hydrochloride]
19 | 73 ± 10 | > 100 |  |  | O=C(Cn1ccnc1)c1ccc2c(c1)OCCO2 [1-(2,3-dihydro-benzo[1,4]dioxin-6-yl)-2-imidazol-1-yl-ethanone hydrochloride]
20 | 2.2 ± 0.5 | 15 ± 1 |  |  | O=C(Cn1ccnc1)c1ccc(Cl)cc1Cl [1-(2,4-dichloro-phenyl)-2-imidazol-1-yl-ethanone hydrochloride]
21 | 6.6 ± 0.2 | 58 ± 10 |  |  | O=C(Cn1ccnc1)c1cc(Cl)ccc1Cl [1-(2,5-dichloro-phenyl)-2-imidazol-1-yl-ethanone hydrochloride]
22 | 4 ± 1 | > 10 |  |  | c1ccc(CSCCn2ccnc2)cc1 [1-(2-benzylsulfanyl-ethyl)-1H-imidazole]
23 | 16.2 ± 0.4 | > 100 |  |  | c1ccc(-c2ccc(C3(Cn4ccnc4)OCCO3)cc2)cc1 [1-(2-biphenyl-4-yl-[1,3]dioxolan-2-ylmethyl)-1H-imidazole hydrochloride]
24 | 2.63 ± 0.06 | > 100 |  |  | c1ccc2cc(C3(Cn4ccnc4)OCCO3)ccc2c1 [1-(2-naphthalen-2-yl-[1,3]dioxolan-2-ylmethyl)-1H-imidazole hydrochloride]
25 | 61 ± 29 | > 100 |  |  | c1ccc(OCCn2ccnc2)cc1 [1-(2-phenoxy-ethyl)-1H-imidazole hydrochloride]
26 | 6 ± 0.1 | > 100 |  |  | c1ccc(SCCn2ccnc2)cc1 [1-(2-phenylsulfanyl-ethyl)-1H-imidazole hydrochloride]
27 | > 100 | > 100 |  |  | O=C(CCc1ccccc1)Cn1nc(-c2ccccc2)nc1-c1ccccc1 [1-(3,5-Diphenyl-[1,2,4]triazol-1-yl)-4-phenyl-butan-2-one]
28 | 2.1 ± 0.1 | 35 ± 3 |  |  | O=C(Cn1ccnc1)c1cccc(Br)c1 [1-(3-Bromo-phenyl)-2-(1H-imidazol-1-yl)-ethanone hydrochloride]
29 | 14 ± 4 | > 100 |  |  | c1ccc(CCCn2ccnc2)cc1 [1-(3-Phenyl-propyl)-1H-imidazole hydrochloride]
30 | 3.7 ± 0.4 | 22 ± 3 |  |  | [O-][S+](CCCn1ccnc1)c1ccccc1 (stereo not drawn) [1-(3-benzenesulfinyl-propyl)-1H-imidazole hydrochloride]
31 | 42 ± 13 | 206 ± 96 |  |  | c1ccc(OCCCn2ccnc2)cc1 [1-(3-phenoxy-propyl)-1H-imidazole hydrochloride]
32 | 2.4 ± 0.2 | 16 ± 2 |  |  | c1ccc(SCCCn2ccnc2)cc1 [1-(3-phenylsulfanyl-propyl)-1H-imidazole hydrochloride]
33 | 86 ± 30 | > 100 |  |  | c1cn(Cc2ccc(Cn3ccnc3)cc2)cn1 [1-(4-(1H-Imidazol-1-ylmethyl)benzyl)-1H-imidazole dihydrochloride]
34 | 11 ± 3 | > 100 |  |  | O=C(Cn1ccnc1)c1ccc(OCc2ccccc2)cc1 [1-(4-Benzyloxy-phenyl)-2-(1H-imidazol-1-yl)-ethanone]
35 | > 100 | > 100 |  |  | O=C(CCc1ccccc1)Cn1cnc(Br)c1 [1-(4-Bromo-imidazol-1-yl)-4-phenyl-butan-2-one]
36 | 2.7 ± 0.5 | 50 ± 24 |  |  | O=C(Cn1cncn1)c1ccc(Br)cc1 [1-(4-Bromo-phenyl)-2-[1,2,4]triazol-1-yl-ethanone]
37 | 18.44 ± 0.04 | 31 ± 5 |  |  | [O-][S+](CCCCn1ccnc1)c1ccccc1 (stereo not drawn) [1-(4-benzenesulfinyl-butyl)-1H-imidazole hydrochloride]
38 | 1.99 ± 0.05 | 2.3 ± 0.2 |  |  | O=C(Cn1ccnc1)c1ccc(Cc2ccccc2)cc1 [1-(4-benzyl-phenyl)-2-imidazol-1-yl-ethanone hydrochloride]
39 | 8.3 ± 0.9 | 51 ± 26 |  |  | Clc1ccc(/C(Cn2ccnc2)=N/OCc2ccc(Br)cc2)cc1 [1-(4-chloro-phenyl)-2-imidazol-1-yl-ethanone O-(4-bromo-benzyl)-oxime hydrochloride]
40 | 46 ± 8 | > 100 |  |  | O/N=C(\Cn1ccnc1)c1ccc(Cl)cc1 [1-(4-chloro-phenyl)-2-imidazol-1-yl-ethanone oxime]
41 | 2.1 ± 0.1 | 35 ± 3 |  |  | O=C(Cn1ccnc1)c1ccc(F)cc1 [1-(4-fluoro-phenyl)-2-imidazol-1-yl-ethanone hydrochloride]
42 | 4 ± 1 | 4.6 ± 0.5 |  |  | c1ccc(OCCCCn2ccnc2)cc1 [1-(4-phenoxy-butyl)-1H-imidazole hydrochloride]
